# Data published in the supplement of paper PMC10307832.
# How the values were obtained:
# Experiment in all cases: relative viability (nuclei count vs DMSO), 5 days (fraction); higher = more cells survive
# NCI-H2009 = test system: NCI-H2009
# In short: (§1)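 A single step with final 0.05% Triton X-100, 1% formaldehyde and 1 ug/ml Hoechst fixed the cells and stained nuclei 5 days after treatment. Lung cancer cell lines in 1536-well plates had been treated by pin tool the day after seeding with one drug alone or a fixed anchor-drug dose plus five library-drug doses (not always all listed) in √10 steps, and nuclei were counted on 4× images. Relative viability is the ratio of nuclei in treated wells to nuclei in vehicle wells, taken as the median of duplicate plates.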
# NCI-H2342 = test system: NCI-H2342
# In short: as §1
# NCI-H1975 = test system: NCI-H1975
# In short: as §1
# NCI-H1666 = test system: NCI-H1666
# In short: as §1
# UMC-11 = test system: UMC-11
# In short: as §1
# H3255 = test system: H3255
# In short: as §1
# PC-14 = test system: PC-14
# In short: as §1
# NCI-H2228 = test system: NCI-H2228
# In short: as §1
# HCC-827 = test system: HCC-827
# In short: as §1
# NCI-H23 = test system: NCI-H23
# In short: as §1
# PC-3 [JPC-3] = test system: PC-3 [JPC-3]
# In short: as §1
# LC-2-ad = test system: LC-2-ad
# In short: as §1
# NCI-H2087 = test system: NCI-H2087
# In short: as §1
# SK-MES-1 = test system: SK-MES-1
# In short: as §1
# ABC-1 = test system: ABC-1
# In short: as §1
# HCC-15 = test system: HCC-15
# In short: as §1
# LXF-289 = test system: LXF-289
# In short: as §1
# NCI-H661 = test system: NCI-H661
# In short: as §1
# NCI-H2085 = test system: NCI-H2085
# In short: as §1
# HCC-366 = test system: HCC-366
# In short: as §1
# NCI-H1437 = test system: NCI-H1437
# In short: as §1
# LCLC-103H = test system: LCLC-103H
# In short: as §1
# COR-L23 = test system: COR-L23
# In short: as §1
structure (smiles),measurement,setting,value
CN1CCN(CCOc2cc(OC3CCOCC3)c3c(Nc4c(Cl)ccc5c4OCO5)ncnc3c2)CC1 [Saracatinib] + Cc1nc(Nc2ncc(C(=O)Nc3c(C)cccc3Cl)s2)cc(N2CCN(CCO)CC2)n1 [Dasatinib] (partner 0.075 µM),relative viability,NCI-H2009; first compound 0.02 µM,0.298
same,relative viability,NCI-H2009; first compound 0.2 µM,0.274
same,relative viability,NCI-H2009; first compound 0.6325 µM,0.262
same,relative viability,NCI-H2009; first compound 2 µM,0.265
same,relative viability,NCI-H2342; first compound 0.02 µM,0.398
same,relative viability,NCI-H2342; first compound 0.2 µM,0.327
same,relative viability,NCI-H2342; first compound 0.6325 µM,0.305
same,relative viability,NCI-H2342; first compound 2 µM,0.295
same,relative viability,NCI-H1975; first compound 0.02 µM,0.487
same,relative viability,NCI-H1975; first compound 0.2 µM,0.343
same,relative viability,NCI-H1975; first compound 0.6325 µM,0.372
same,relative viability,NCI-H1975; first compound 2 µM,0.253
same,relative viability,NCI-H1666; first compound 0.02 µM,0.772
same,relative viability,NCI-H1666; first compound 0.2 µM,0.87
same,relative viability,NCI-H1666; first compound 0.6325 µM,0.967
same,relative viability,NCI-H1666; first compound 2 µM,0.875
same,relative viability,UMC-11; first compound 0.02 µM,0.471
same,relative viability,UMC-11; first compound 0.6325 µM,0.543
same,relative viability,UMC-11; first compound 2 µM,0.473
same,relative viability,H3255; first compound 0.02 µM,0.389
same,relative viability,H3255; first compound 0.2 µM,0.303
same,relative viability,H3255; first compound 0.6325 µM,0.344
same,relative viability,H3255; first compound 2 µM,0.267
same,relative viability,PC-14; first compound 0.02 µM,0.211
same,relative viability,PC-14; first compound 0.2 µM,0.127
same,relative viability,PC-14; first compound 0.6325 µM,0.0455
same,relative viability,PC-14; first compound 2 µM,0.0398
same,relative viability,NCI-H2228; first compound 0.02 µM,0.501
same,relative viability,NCI-H2228; first compound 0.2 µM,0.556
same,relative viability,NCI-H2228; first compound 0.6325 µM,0.576
same,relative viability,NCI-H2228; first compound 2 µM,0.372
same,relative viability,HCC-827; first compound 0.02 µM,0.3
same,relative viability,HCC-827; first compound 0.2 µM,0.136
same,relative viability,HCC-827; first compound 0.6325 µM,0.22
same,relative viability,HCC-827; first compound 2 µM,0.131
same,relative viability,NCI-H23; first compound 0.02 µM,0.805
same,relative viability,NCI-H23; first compound 0.2 µM,0.613
same,relative viability,NCI-H23; first compound 0.6325 µM,0.837
same,relative viability,NCI-H23; first compound 2 µM,0.789
same,relative viability,PC-3 [JPC-3]; first compound 0.02 µM,0.941
same,relative viability,PC-3 [JPC-3]; first compound 0.2 µM,0.952
same,relative viability,PC-3 [JPC-3]; first compound 0.6325 µM,0.682
same,relative viability,PC-3 [JPC-3]; first compound 2 µM,0.595
same,relative viability,LC-2-ad; first compound 0.02 µM,0.611
same,relative viability,LC-2-ad; first compound 0.2 µM,0.571
same,relative viability,LC-2-ad; first compound 0.6325 µM,0.794
same,relative viability,LC-2-ad; first compound 2 µM,0.596
same,relative viability,NCI-H2087; first compound 0.02 µM,0.807
same,relative viability,NCI-H2087; first compound 0.2 µM,0.69
same,relative viability,NCI-H2087; first compound 0.6325 µM,0.928
same,relative viability,NCI-H2087; first compound 2 µM,0.656
same,relative viability,SK-MES-1; first compound 0.02 µM,0.4
same,relative viability,SK-MES-1; first compound 0.2 µM,0.289
same,relative viability,SK-MES-1; first compound 0.6325 µM,0.233
same,relative viability,SK-MES-1; first compound 2 µM,0.186
same,relative viability,ABC-1; first compound 0.02 µM,0.673
same,relative viability,ABC-1; first compound 0.2 µM,0.591
same,relative viability,ABC-1; first compound 0.6325 µM,0.616
same,relative viability,ABC-1; first compound 2 µM,0.514
same,relative viability,HCC-15; first compound 0.02 µM,0.595
same,relative viability,HCC-15; first compound 0.2 µM,0.524
same,relative viability,HCC-15; first compound 0.6325 µM,0.605
same,relative viability,HCC-15; first compound 2 µM,0.561
same,relative viability,LXF-289; first compound 0.02 µM,0.224
same,relative viability,LXF-289; first compound 0.2 µM,0.218
same,relative viability,LXF-289; first compound 0.6325 µM,0.185
same,relative viability,LXF-289; first compound 2 µM,0.212
same,relative viability,NCI-H661; first compound 0.02 µM,0.891
same,relative viability,NCI-H661; first compound 0.2 µM,0.797
same,relative viability,NCI-H661; first compound 0.6325 µM,0.817
same,relative viability,NCI-H661; first compound 2 µM,0.528
same,relative viability,NCI-H2085; first compound 0.02 µM,0.286
same,relative viability,NCI-H2085; first compound 0.2 µM,0.321
same,relative viability,NCI-H2085; first compound 0.6325 µM,0.345
same,relative viability,NCI-H2085; first compound 2 µM,0.3
same,relative viability,HCC-366; first compound 0.02 µM,0.636
same,relative viability,HCC-366; first compound 0.6325 µM,0.678
same,relative viability,HCC-366; first compound 2 µM,0.607
same,relative viability,NCI-H1437; first compound 0.02 µM,0.494
same,relative viability,NCI-H1437; first compound 0.2 µM,0.283
same,relative viability,NCI-H1437; first compound 0.6325 µM,0.389
same,relative viability,NCI-H1437; first compound 2 µM,0.289
same,relative viability,LCLC-103H; first compound 0.02 µM,0.475
same,relative viability,LCLC-103H; first compound 0.2 µM,0.496
same,relative viability,LCLC-103H; first compound 0.6325 µM,0.466
same,relative viability,LCLC-103H; first compound 2 µM,0.515
same,relative viability,COR-L23; first compound 0.02 µM,0.553
same,relative viability,COR-L23; first compound 0.2 µM,0.533
same,relative viability,COR-L23; first compound 0.6325 µM,0.542
same,relative viability,COR-L23; first compound 2 µM,0.478
